How the values were obtained:
CDK12/CycK = target: T1, CDK12/CycK (Homo sapiens, UniProt Q9NYV4); assay: CDK12/CycK high ATP kinase assay (TR-FRET, 2 mM ATP); format: biochemical; details: read-out: CDK12/CyclinK, 2 mM ATP (high ATP), IC50-[mol/l] (median)
T1 construct: His-CDK12 (aa Q696-S1082); made in house; host or cells: Hi-5 insect cells (baculovirus co-infection with CAK1)
From the text: In the context of the present invention, the term “IC50 CDK12 hATP” refers to the IC50 values obtained according to the assay described in this section (2.2) herein below, i.e. the IC50 values for the inhibition of CDK12 at high ATP.
CDK12/CycK-inhibitory activity of compounds of the present invention at 2 millimol/L adenosine-tri-phosphate (ATP) was quantified employing the TR-FRET (TR-FRET=Time Resolved Fluorescence Energy Transfer) based CDK12/CycK activity inhibition assay as described in the following paragraphs.
A complex of human recombinant CDK12 and human recombinant CycK (both N-terminally His-tagged, expression and purification as described above) was used as enzyme. As substrate for the kinase reaction biotinylated peptide biotin-Ahx-KFELLPTPPLSPSRRSGL (C-terminus in amid form) was used which can be purchased e.g. form the company Biosyntan (Berlin-Buch, Germany).
For the assay 50 nanoL of a 100 fold concentrated solution of the test compound in DMSO was pipetted into either a black low volume 384 well microtiter plate or a black 1536 well microtiter plate (both Greiner Bio-One, Frickenhausen, Germany), 2 microL of a solution of CDK12/CycK in aqueous assay buffer [25 millimol/L HEPES pH 7.5, 20 millimol/L MgCl2, 5 millimol/L ß-glycerophosphate, 2 millimol/L EGTA, 1.0 millimol/L dithiothreitol, 0.01% (v/v) Nonidet-P40 (Sigma), 0.01% (w/v) bovine serum albumin] were added and the mixture was incubated for 15 min at 22° C. to allow pre-binding of the test compounds to the enzyme before the start of the kinase reaction. Then the kinase reaction was started by the addition of 3 microL of a solution ATP (3.33 millimol/L=> final conc. in the 5 microL assay volume is 2 millimol/L) and substrate (1.67 micromol/L=> final conc. in the 5 microL assay volume is 1 micromol/L) in assay buffer and the resulting mixture was incubated for a reaction time of 60 min at 22° C. The concentration of CDK12/CycK was adjusted depending of the activity of the enzyme lot and was chosen appropriate to have the assay in the linear range, typical concentrations were about 0.75 nanomol/L. The reaction was stopped by the addition of 3 microL of a solution of TR-FRET detection reagents (125 nanomol/L streptavidine-XL665 [Cisbio Bioassays, Codolet, France] and 0.67 nanomol/L anti-Phospho-c-Myc (Ser 62) (E1J4K)-antibody from Cell Signalling [#13748] and 2 nanomol/L LANCE EU-W1024 labeled anti-rabbit IgG antibody [Perkin-Elmer, product no. 0083]) in an aqueous EDTA-solution (133 millimol/L EDTA, 0.27% (w/v) bovine serum albumin in 66.7 millimol/L HEPES pH 7.5).
The resulting mixture was incubated 1 h at 22° C. to allow the formation of complex between the phosphorylated biotinylated peptide and the detection reagents. Subsequently the amount of phosphorylated substrate was evaluated by measurement of the resonance energy transfer from the Eu-chelate to the streptavidine-XL. Therefore, the fluorescence emissions at 620 nm and 665 nm after excitation at 350 nm was measured in a TR-FRET reader, e.g. a Pherastar FS (BMG Labtechnologies, Offenburg, Germany) or a Viewlux (Perkin-Elmer). The ratio of the emissions at 665 nm and at […] was taken as the measure for the amount of phosphorylated substrate. The data were normalised (enzyme reaction without inhibitor=0% inhibition, all other assay components but no enzyme=100% inhibition).

CYCLIN K = CYCLIN K nuclear protein level: immunofluorescence/high content analysis in CAL-120 cells; format: cell-based, human; details: 24 h, nuclear CCNK staining, read-out: CYCLIN K degradation IF, DC50-[mol/l] (median)
Description: In the context of the present invention, the term “DC50 Cyclin K” refers to the DC50 values obtained according to the assay described in this section (7) herein below, i.e. the DC50 values for the degradation of Cyclin K.
CAL-120 human breast cancer cells (DSMZ ACC 459) are seeded in 1536-well microtiter plates (800 cells per well) containing 50 nanoL of compounds in Dose-Response. Control wells received DMSO or Reference Example 1. Plates are then incubated for 24 h at 37° C. in an humidified incubator and fixed with 4% PFA for 10 min. Then immunofluorescence (IF) against CYCLIN K (ThermoFisher Scientific CCNK Antibody #PA5-85020, rabbit, 1:200 dilution) is performed using standard IF protocols. Cells are then stained with Hoechst 33342 (Life Technologies, H-1399, 0.1 microg/ml) and imaged on an automated confocal microscopy system (e.g. Perkin Elmer Opera Phenix). Nuclear and cytoplasmic intensity as well as the nuclear/cytoplasmic intensity ratio is determined by automated image analysis using custom generated scripts (MetaXpress). Data is then transferred to Genedata Screener software, normalized to DMSO and control and DC50 values (degrading concentration to achieve 50% reduction of nuclear CCNK staining intensity relative to controls) are reported.

T1 sequence (Q9NYV4 with tags, fused parts or gaps): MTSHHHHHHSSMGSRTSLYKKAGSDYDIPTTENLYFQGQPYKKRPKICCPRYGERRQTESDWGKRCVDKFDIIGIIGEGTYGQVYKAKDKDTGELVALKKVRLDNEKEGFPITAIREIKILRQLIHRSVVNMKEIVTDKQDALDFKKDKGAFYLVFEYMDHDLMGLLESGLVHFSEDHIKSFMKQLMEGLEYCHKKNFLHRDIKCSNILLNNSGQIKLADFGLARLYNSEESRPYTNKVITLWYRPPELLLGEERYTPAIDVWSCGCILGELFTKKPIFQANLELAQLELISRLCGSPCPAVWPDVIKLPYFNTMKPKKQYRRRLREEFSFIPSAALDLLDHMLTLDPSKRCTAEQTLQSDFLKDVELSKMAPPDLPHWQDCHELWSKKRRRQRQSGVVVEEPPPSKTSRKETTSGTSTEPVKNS
T1 sequence (O75909 with tags, fused parts or gaps partner limits assumed): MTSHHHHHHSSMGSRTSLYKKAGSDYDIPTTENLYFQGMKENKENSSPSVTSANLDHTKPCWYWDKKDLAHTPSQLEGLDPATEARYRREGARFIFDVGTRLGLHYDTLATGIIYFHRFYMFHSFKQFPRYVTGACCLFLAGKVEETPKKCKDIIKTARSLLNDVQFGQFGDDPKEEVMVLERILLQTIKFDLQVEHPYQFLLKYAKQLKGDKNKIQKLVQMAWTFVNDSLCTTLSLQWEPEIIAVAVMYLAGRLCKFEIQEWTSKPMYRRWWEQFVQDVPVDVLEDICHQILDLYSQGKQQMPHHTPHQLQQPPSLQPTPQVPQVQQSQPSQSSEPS

IC50 (CDK12/CycK) [nM] | DC50 (CYCLIN K) [nM] | SMILES
5110 | 0.876 | Brc1cnc2c(NCc3nc4ccccc4[nH]3)nc(N3CCOCC3)nn12 [Example 1, N-[(1H-benzimidazol-2-yl)methyl]-7-bromo-2-(morpholin-4-yl)imidazo[2,1-f][1,2,4]triazin-4-amine]
6980 | 3.58 | N#Cc1cnc2c(NCc3nc4ccccc4[nH]3)nc(N3CCOCC3)nn12 [Example 2, 4-{[(1H-benzimidazol-2-yl)methyl]amino}-2-(morpholin-4-yl)imidazo[2,1-f][1,2,4]triazine-7-carbonitrile]
> 20000 | 23.9 | Fc1cccc(-c2cnc3c(NCc4nc5ccccc5[nH]4)nc(N4CCOCC4)nn23)c1 [Example 3, N-[(1H-benzimidazol-2-yl)methyl]-7-(3-fluorophenyl)-2-(morpholin-4-yl)imidazo[2,1-f][1,2,4]triazin-4-amine]
990 | 1.14 | C[C@@H]1CN(c2nc(NCc3nc4ccccc4[nH]3)c3ncc(Br)n3n2)C[C@H](C)O1 [Example 4, N-[(1H-benzimidazol-2-yl)methyl]-7-bromo-2-[rel-(2R,6S)-2,6-dimethylmorpholin-4-yl]imidazo[2,1-f][1,2,4]triazin-4-amine]
137 | 1.16 | C[C@@H]1CN(c2nc(NCc3nc4c(F)c(F)ccc4[nH]3)c3ncc(Br)n3n2)C[C@H](C)O1 [Example 5, 7-bromo-N-[(4,5-difluoro-1H-benzimidazol-2-yl)methyl]-2-[rel-(2R,6S)-2,6-dimethylmorpholin-4-yl]imidazo[2,1-f][1,2,4]triazin-4-amine]
> 18600 | 2.31 | CN1CCN(c2nc(NCc3nc4ccccc4[nH]3)c3ncc(Br)n3n2)CC1 [Example 6, N-[(1H-benzimidazol-2-yl)methyl]-7-bromo-2-(4-methylpiperazin-1-yl)imidazo[2,1-f][1,2,4]triazin-4-amine]
1260 | 0.201 | Fc1ccc2[nH]c(CNc3nc(N4CCOCC4)nn4c(Br)cnc34)nc2c1F [Example 7, 7-bromo-N-[(4,5-difluoro-1H-benzimidazol-2-yl)methyl]-2-(morpholin-4-yl)imidazo[2,1-f][1,2,4]triazin-4-amine]
5650 | 1.28 | Brc1cnc2c(NCc3nc4ccccc4[nH]3)nc(N3CCNCC3)nn12 [Example 8, N-[(1H-benzimidazol-2-yl)methyl]-7-bromo-2-(piperazin-1-yl)imidazo[2,1-f][1,2,4]triazin-4-amine]
4900 | 0.111 | C[C@@H]1CN(c2nc(NCc3nc4ccccc4[nH]3)c3ncc(Br)n3n2)C[C@H](C)N1 [Example 9, N-[(1H-benzimidazol-2-yl)methyl]-7-bromo-2-[rel-(3R,5S)-3,5-dimethylpiperazin-1-yl]imidazo[2,1-f][1,2,4]triazin-4-amine]
1370 | 0.0632 | Fc1ccc2[nH]c(CNc3nc(N4CCNCC4)nn4c(Br)cnc34)nc2c1F [Example 10, 7-bromo-N-[(4,5-difluoro-1H-benzimidazol-2-yl)methyl]-2-(piperazin-1-yl)imidazo[2,1-f][1,2,4]triazin-4-amine]
579 | 0.0525 | C[C@@H]1CN(c2nc(NCc3nc4c(F)c(F)ccc4[nH]3)c3ncc(Br)n3n2)C[C@H](C)N1 [Example 11, 7-bromo-N-[(4,5-difluoro-1H-benzimidazol-2-yl)methyl]-2-[rel-(3R,5S)-3,5-dimethylpiperazin-1-yl]imidazo[2,1-f][1,2,4]triazin-4-amine]
4710 | 0.292 | Fc1cccc2[nH]c(CNc3nc(N4CCOCC4)nn4c(Br)cnc34)nc12 [Example 12, 7-bromo-N-[(4-fluoro-1H-benzimidazol-2-yl)methyl]-2-(morpholin-4-yl)imidazo[2,1-f][1,2,4]triazin-4-amine]
1330 | 1.57 | COc1cccc2[nH]c(CNc3nc(N4CCOCC4)nn4c(Br)cnc34)nc12 [Example 13, 7-bromo-N-[(4-methoxy-1H-benzimidazol-2-yl)methyl]-2-(morpholin-4-yl)imidazo[2,1-f][1,2,4]triazin-4-amine]
2010 | 0.225 | COc1cccc2[nH]c(CNc3nc(N4C[C@@H](C)N[C@@H](C)C4)nn4c(Br)cnc34)nc12 [Example 14, 7-bromo-2-[rel-(3R,5S)-3,5-dimethylpiperazin-1-yl]-N-[(4-methoxy-1H-benzimidazol-2-yl)methyl]imidazo[2,1-f][1,2,4]triazin-4-amine]
2090 | 1.41 | COc1cccc2[nH]c(CNc3nc(N4CCNCC4)nn4c(Br)cnc34)nc12 [Example 15, 7-bromo-N-[(4-methoxy-1H-benzimidazol-2-yl)methyl]-2-(piperazin-1-yl)imidazo[2,1-f][1,2,4]triazin-4-amine]
6290 | 0.954 | COc1cccc2[nH]c(CNc3nc(N4CCN(C)CC4)nn4c(Br)cnc34)nc12.O=CO [Example 16, 7-bromo-N-[(4-methoxy-1H-benzimidazol-2-yl)methyl]-2-(4-methylpiperazin-1-yl)imidazo[2,1-f][1,2,4]triazin-4-amine Formate (1/1)]
116 | 3.94 | OC[C@@H]1CCCCN1c1nc(NCc2nc3ccccc3[nH]2)c2ncc(Br)n2n1 [Example 17, [(2S)-1-(4-{[(1H-benzimidazol-2-yl)methyl]amino}-7-bromoimidazo[2,1-f][1,2,4]triazin-2-yl)piperidin-2-yl]methanol]
1800 | 0.505 | C[C@@H]1CN(c2nc(NCc3nc4c(F)cccc4[nH]3)c3ncc(Br)n3n2)C[C@H](C)N1 [Example 18, 7-bromo-2-[rel-(3R,5S)-3,5-dimethylpiperazin-1-yl]-N-[(4-fluoro-1H-benzimidazol-2-yl)methyl]imidazo[2,1-f][1,2,4]triazin-4-amine]
6430 | 0.0931 | C[C@@H]1CN(c2nc(NCc3nc4cc(F)ccc4[nH]3)c3ncc(Br)n3n2)C[C@H](C)N1 [Example 19, 7-bromo-2-[rel-(3R,5S)-3,5-dimethylpiperazin-1-yl]-N-[(5-fluoro-1H-benzimidazol-2-yl)methyl]imidazo[2,1-f][1,2,4]triazin-4-amine]
3460 | 0.0659 | Fc1ccc2[nH]c(CNc3nc(N4CCOCC4)nn4c(Br)cnc34)nc2c1 [Example 20, 7-bromo-N-[(5-fluoro-1H-benzimidazol-2-yl)methyl]-2-(morpholin-4-yl)imidazo[2,1-f][1,2,4]triazin-4-amine]
163 | – | CN(CC(C)(C)O)c1nc(NCc2nc3ccccc3[nH]2)c2ncc(C(F)(F)F)n2n1 [Example 30, 1-[{4-[(1H-benzimidazol-2-ylmethyl)amino]-7-(trifluoromethyl)imidazo[2,1-f][1,2,4]triazin-2-yl}(methyl)amino]-2-methylpropan-2-ol]
